Laboratory results reported in article PMC11443494, “Dynamical responses predict a distal site that modulates activity in an antibiotic resistance enzyme” (Chemical Science, 2024).
Like-named read-outs stand apart in the source and are kept apart here.

How the values were obtained:
SHV-38 = system: SHV-38; parameters: method as in Poirel et al [3]; conditions: ref Poirel et al [3]; cited from earlier work
SHV-2 = system: SHV-2; parameters: method as in Liakopoulos et al. [2]; conditions: ref Liakopoulos et al. [2], cited from earlier work
SHV-1 = system: SHV-1; parameters: method as in Liakopoulos et al. [2]; conditions: ND = no detected hydrolysis, ref Liakopoulos et al. [2]; cited from earlier work
KPC-2 [1] = target: T1, KPC-2 (Klebsiella pneumoniae, UniProt Q9F663); type: biochemical
T1 construct: made in house
Experimental: (§1) Antibiotic hydrolysis was measured at 25 °C in kinetics buffer (10 mM HEPES, pH 7.5 and 150 mM NaCl, 100 μg per mL bovine […] albumin (BSA)). […] Hydrolysis was followed using Greiner half area 96-well plates and a BMG CLARIOstar Plus microplate reader. GraphPad Prism 9.3.1 (GraphPad Software, La Jolla, CA, USA; https://www.graphpad.com) was used to calculate kinetic parameters. Initial rates of antibiotic hydrolysis measured across a range of antibiotic concentrations were used to calculate steady-state parameters according to the Michaelis–Menten equation.

KPC-2^G89D [2] = target: T2, KPC-2^G89D (Klebsiella pneumoniae, UniProt Q9F663, G88D); assay: Steady-state kinetics of β-lactam hydrolysis by KPC-2^G89D; type: biochemical; conditions: for decrease in catalytic efficiency (kcat/KM): KPC-2^G89D compared to wild-type KPC-2; for Kcat / K M: KPC-2^G89D, 25 °C, standard error in parentheses; for Kcat: 10 mM HEPES pH 7.5, 150 mM NaCl, BSA; for K M: pH 7.5
T2 construct: made in house; host or cells: E. coli
Experimental: as §1

KPC-2 [3] = target: T1, KPC-2; assay: Inhibition of nitrocefin hydrolysis (IC50), KPC-2; type: biochemical; conditions: wild-type KPC-2; nitrocefin 200 μM, 10 minute pre-incubation
Experimental: Both inhibitors were dissolved in kinetics buffer.

KPC-2^G89D [4] = target: T2, KPC-2^G89D; assay: Inhibition of nitrocefin hydrolysis (IC50), KPC-2^G89D; type: biochemical; conditions: nitrocefin 200 μM, 10 minute pre-incubation of enzyme and inhibitor
KPC-2 [5] = target: T1, KPC-2; assay: Pre-steady-state (stopped-flow tryptophan fluorescence) binding kinetics, KPC-2
Experimental: (§2) Pre-steady state kinetics were measured by mixing meropenem with KPC-2 or KPC-2^G89D (both 10 nM concentration) in an Applied Photophysics SX20 stopped-flow spectrometer connected to a photodiode array detector in kinetics buffer. Data were fitted from 0.005 to 0.3 s for both 5 repeats of each of KPC-2 : meropenem and KPC-2^G89D : meropenem. k1 and k−1 were calculated from the gradient and the y-intercept of the kobsvs. substrate concentration curves. KD is calculated using the following equation: [drawing 1]
(§3) Figure S11: Binding kinetics of meropenem calculated using pre-steady state kinetics. a) Kinetic model for binding and hydrolysis of β-lactam substrates by serine β-lactamases. KD is calculated by k-1 / k1. Normalised tryptophan fluorescence curves, averaged over 5 transients, measured from 0.005 s to 0.25 s, for meropenem binding to KPC-2 (b) and KPC-2G89D (both at 10 nM) (c) were used to calculate kobs over a range of concentrations using one phase decay curve fitting. kobs was plotted for KPC-2 (d) and KPC-2G89D (e), and a linear regression used to calculate the y-intercept (k-1) and the slope (k 1). The calculated KD values are 3.7 μM and 5.9 μM for KPC-2 and KPC-2G89D. […]

KPC-2^G89D [6] = target: T2, KPC-2^G89D; assay: Pre-steady-state (stopped-flow tryptophan fluorescence) binding kinetics, KPC-2^G89D
Experimental: as §2, §3

[7] = KPC-2, 25 °C, 10 mM HEPES pH 7.5, 150 mM NaCl, BSA, standard error in parentheses
[8] = KPC-2, 25 °C, pH 7.5, standard error in parentheses

T2 sequence (Q9F663 25-293 G88D): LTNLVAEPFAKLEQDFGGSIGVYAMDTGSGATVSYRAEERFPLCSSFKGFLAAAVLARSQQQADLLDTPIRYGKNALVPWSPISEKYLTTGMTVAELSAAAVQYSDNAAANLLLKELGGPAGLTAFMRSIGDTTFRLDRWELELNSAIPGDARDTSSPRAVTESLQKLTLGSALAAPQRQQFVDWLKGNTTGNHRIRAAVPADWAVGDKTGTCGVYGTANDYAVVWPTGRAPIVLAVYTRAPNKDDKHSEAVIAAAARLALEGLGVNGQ
T1 sequence (Q9F663 25-293 limits assumed): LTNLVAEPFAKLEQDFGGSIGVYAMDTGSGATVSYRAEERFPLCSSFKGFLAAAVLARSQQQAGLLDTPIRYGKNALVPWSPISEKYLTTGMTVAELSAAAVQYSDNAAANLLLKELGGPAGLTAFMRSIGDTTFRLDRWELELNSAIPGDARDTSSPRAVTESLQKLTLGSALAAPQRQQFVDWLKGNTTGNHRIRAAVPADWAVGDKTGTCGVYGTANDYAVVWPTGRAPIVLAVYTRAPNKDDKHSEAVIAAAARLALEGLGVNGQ

## CO/N=C(\C(=O)N[C@@H]1C(=O)N2C(C(=O)O)=C(COC(C)=O)CS[C@H]12)c1csc(N)n1 [Cefotaxime]
SHV-38
  Kcat: 1 s⁻¹
  Km: 800 µM
SHV-2; ND = no detected hydrolysis
  Kcat: 11 s⁻¹
  Km: 18 µM
SHV-2
  Vmax: 70 µM/min

## CC(C)(O/N=C(\C(=O)N[C@@H]1C(=O)N2C(C(=O)[O-])=C(C[n+]3ccccc3)CS[C@H]12)c1csc(N)n1)C(=O)O [Ceftazidime]
SHV-38
  Kcat: 110 s⁻¹
  Km: 3800 µM
SHV-2; ND = no detected hydrolysis
  Km: 24 µM
SHV-2
  Vmax: 6.5 µM/min

## CC1(C)S[C@@H]2[C@H](NC(=O)Cc3ccccc3)C(=O)N2[C@H]1C(=O)O [Benzylpenicillin]
SHV-1
  Kcat: 455 s⁻¹
  Km: 20 µM
SHV-38
  Kcat: 100 s⁻¹
  Km: 13 µM
SHV-2; ND = no detected hydrolysis
  Km: 3.8 µM
SHV-2
  Vmax: 100 µM/min

## C[C@@H](O)[C@H]1C(=O)N2C(C(=O)O)=C(SCCN=CN)C[C@H]12 [Imipenem]
KPC-2 [1]; [7]
  Kcat: 22 (0.43) s^−1
KPC-2 [1]; [8]
  K M: 72 (3.2) μM
SHV-38
  Kcat: 0.01 s⁻¹
  Km: 24 µM
KPC-2^G89D [2]
  decrease in catalytic efficiency (kcat/KM): 10 fold
  Kcat: 2.8 (0.12) s^−1
  K M: 68.9 (10.2) μM

## CC1(C)S[C@@H]2[C@H](NC(=O)[C@H](N)c3ccccc3)C(=O)N2[C@H]1C(=O)O [Ampicillin]
KPC-2 [1]; pH 7.5
  K M: 271 (44.7) μM
  Kcat: 82.3 (3.92) s^−1
KPC-2^G89D [2]
  Kcat: 160 (5.83) s^−1
  K M: 201 (36.3) μM

## O=C(NNC(=O)[C@@H]1CC[C@@H]2CN1C(=O)N2OS(=O)(=O)O)[C@@H]1CCCNC1 [Zidebactam]
KPC-2 [3]
  IC50: 0.06 nM
KPC-2^G89D [4]
  IC50: 0.7 nM

## CC(=O)OCC1=C(C(=O)O)N2C(=O)[C@@H](NC(=O)Cc3cccs3)[C@H]2SC1 [Cephalothin]
SHV-1
  Kcat: 10 s⁻¹
  Km: 26 µM
SHV-38
  Kcat: 5 s⁻¹
  Km: 100 µM

## C[C@@H](O)[C@H]1C(=O)N2C(C(=O)O)=C(S[C@@H]3CN[C@H](C(=O)N(C)C)C3)[C@H](C)[C@H]12 [Meropenem]
KPC-2 [5]
  Kd: 3700 nM
KPC-2 [1]; [7]
  Kcat: 21.5 (0.12) s^−1
KPC-2 [1]; [8]
  K M: 7.1 (1.01) μM
KPC-2^G89D [6]
  Kd: 5900 nM
KPC-2^G89D [2]
  decrease in catalytic efficiency (kcat/KM): 100 fold
  Kcat: 0.2 (1 × 10^−2) s^−1
  K M: 7.9 (1.57) μM
